From ChEMBL document CHEMBL4219131, “Design and synthesis of estrogen receptor ligands with a 4-heterocycle-4-phenylheptane skeleton” (Bioorg Med Chem, 2018)
Active and inactive are the calls of the source. No cut-off for these calls is given here.

How the values were obtained:
Estrogen receptor [1] = biological target: T1, Estrogen receptor (Homo sapiens, UniProt P03372); test: Agonist activity at recombinant human GAL4-fused ERalpha expressed in HEk293 cells by luciferase reporter gene assay; assay type: cell-based
T1 sequence (P03372 whole entry): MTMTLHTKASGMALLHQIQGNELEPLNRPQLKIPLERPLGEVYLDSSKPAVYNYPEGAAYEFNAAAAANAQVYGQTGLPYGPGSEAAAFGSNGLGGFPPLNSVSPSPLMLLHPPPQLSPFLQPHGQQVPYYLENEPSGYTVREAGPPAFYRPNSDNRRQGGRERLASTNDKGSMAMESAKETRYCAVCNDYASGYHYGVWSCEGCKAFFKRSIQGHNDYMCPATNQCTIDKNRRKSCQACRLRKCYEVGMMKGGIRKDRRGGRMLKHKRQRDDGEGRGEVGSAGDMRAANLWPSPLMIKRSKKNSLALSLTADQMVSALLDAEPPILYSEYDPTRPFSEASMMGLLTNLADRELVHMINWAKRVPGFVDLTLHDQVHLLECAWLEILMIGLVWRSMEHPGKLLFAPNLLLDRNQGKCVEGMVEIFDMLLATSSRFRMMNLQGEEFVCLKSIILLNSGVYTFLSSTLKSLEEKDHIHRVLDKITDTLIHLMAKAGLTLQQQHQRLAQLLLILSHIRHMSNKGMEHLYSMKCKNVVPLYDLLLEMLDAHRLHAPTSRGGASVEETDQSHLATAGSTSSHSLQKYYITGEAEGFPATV

[2] = biological target: T2, Estrogen receptor (Homo sapiens) (UniProt P03372); test: Antagonist activity at ERalpha (unknown origin) expressed in human MCF7 cells assessed as inhibition of E2-induced response at 10 uM by dual luciferase reporter gene assay; assay type: cell-based
T2 sequence (whole entry): T1 sequence (P03372 whole entry)

Estrogen receptor [3] = biological target: T1, Estrogen receptor; test: biochemical
Description: Displacement of Fluormone ES2 from full length recombinant human untagged ERalpha expressed in Sf insect cells by fluorescence polarization assay

[4] = biological target: T2, Estrogen receptor (Homo sapiens); test: Agonist activity at recombinant human GAL4-fused ERalpha expressed in HEk293 cells at 30 uM by luciferase reporter gene assay; assay type: cell-based
Estrogen receptor [5] = biological target: T1, Estrogen receptor
Description: Antagonist activity at ERalpha (unknown origin) expressed in human MCF7 cells assessed as inhibition of E2-induced response by dual luciferase reporter gene assay

SMILES | EC50 (Estrogen receptor [1]) | inhibition [2] | IC50 (Estrogen receptor [3]) | Activity [4] | IC50 (Estrogen receptor [5])
CCCC(CCC)(c1ccc(O)c(C)c1)c1cccs1 | > 30000 nM | inactive | 4680 nM |  | 
CCCC(CCC)(c1ccc(O)c(C)c1)c1ccc(O)c(C)c1 |  |  |  | inactive | 
CCCC(CCC)(c1ccc(O)c(C)c1)c1ccc(C(=O)O)[nH]1 |  | inactive | > 10000 nM | inactive | 
CCCC(CCC)(c1ccc(O)c(C)c1)c1ccc(C(=O)OCC)n1C |  | 41% | 1040 nM | inactive | 
CCCC(CCC)(c1ccc(O)c(C)c1)c1ccc(C(=O)O)n1C |  | inactive | > 10000 nM | inactive | 
CCCC(CCC)(c1ccc(O)c(C)c1)c1c[nH]c2cccc(OCc3ccccc3)c12 |  | inactive | > 10000 nM | inactive | 

Now from value to compound:

EC50 (Estrogen receptor [1]) | inhibition [2] | IC50 (Estrogen receptor [3]) | Activity [4] | IC50 (Estrogen receptor [5]) | SMILES
 | 44% | 613 nM | inactive |  | CCCC(CCC)(c1ccc(O)c(C)c1)c1c[nH]c2cc(OCc3ccccc3)ccc12
> 30000 nM | inactive | 1130 nM |  |  | CCCC(CCC)(c1ccc(O)c(C)c1)c1cc(C)cs1
 |  | 195 nM | inactive | 450 nM | CCCC(CCC)(c1ccc(O)c(C)c1)c1ccc(C(=O)OCC)[nH]1
